The values below come from patent publication US6316190A (The United States of America as represented by the …).

Data set [1] has as its system synthetic peptide with a HIV-1 CCHC zinc finger. As to conditions: cited from earlier work.
Data set [2] relates to HIV-1. As to conditions: cited from earlier work.
The subject of data set [3] is recombinant HIV-1 NC protein. The data set can be described thus: Surface plasmon resonance (BIAcore) binding of NC to immobilized biotinylated oligonucleotides. The conditions noted are these: for NC binding to oligonucleotide (level and stability during washout): oligonucleotide on chip, 0.15M NaCl; for affinity for HIV-1 NC protein: oligonucleotides including the subsequence. The protocol:
In a preferred embodiment, the assay format is surface plasmon resonance (SPR). The Kd and kinetics of the trial compound-protein interaction are determined in a BIAcore, a biosensor based on surface plasmon resonance. For this technique, protein or trial compound is coupled to a derivatized sensor chip capable of detecting changes in mass. When trial compound or protein is passed over the sensor chip, it binds to the trial compound or protein coupled to the chip, resulting in an increase in mass which is quantifiable. Measurement of the rate of association as a function of trial compound or protein concentration can be used to calculate the association rate constant (kon). After the association phase, buffer is passed over the chip and the rate of dissociation (koff) is determined. Kon is typically measured in the range 1.0×10^2 to 5.0×10^6 and koff in the range 1.0×10^-1 to 1.0×10^-6. The equilibrium constant Kd is often calculated as koff/kon and thus is typically measured in the range 10^-5 to 10^-12. Affinities measured in this manner correlate well with affinities measured in solution by fluorescence quench titration. See, Fisher and Fivash (1994) Curr. Opin. Biotechnol. 5:389-395; Fisher et al. (1994) Methods 6:389-395; Johnsson et al., (1991) Anal. Biochem., 198:268-277; Karlsson et al., (1991) J. Immunol. Methods., 145:229-240; and Johnsson et al., (1991) Anal. Biochem. 198:268-277.
NC has traditionally been described as a single-stranded nucleic acid-binding protein. To determine whether this conclusion is accurate under SPR conditions, we initially measured binding of recombinant HIV-1 NC to a single-stranded 28-base oligodeoxynucleotide. The sequence of this oligonucleotide contains 20 bases from the 3' end of HIV-1 proviral DNA (i.e., the 3' end of U5). Surface plasmon resonance (SPR) analysis was performed with biotinylated DNA immobilized at its 3' end.
This possibility was analyzed systematically in the following experiment. Four SPR chips were made containing TGTG (SEQ ID NO:3) at different densities. For each chip, the amount of streptavidin (which holds the biotinylated oligonucleotide on the chip) was measured by SPR analysis before the addition of TGTG (SEQ ID NO:3). The amount of TGTG (SEQ ID NO:3) added to each chip was then quantitated by SPR. Thus, for each chip the ratio of TGTG (SEQ ID NO:3) to streptavidin was empirically determined. Since a streptavidin molecule has four binding sites for biotinylated ligands, the number of streptavidin molecules occupied by 0, 1, 2, 3, or 4 oligonucleotides could be calculated from this ratio, using binomial expansion. Finally, the ability of each chip to bind NC with high affinity was determined by SPR.
Another important aspect of the experiments described here is that the analyses were performed in 0.15M NaCl. The sequence-independent electrostatic interaction between the positively charged NC protein and nucleic acids is obviously much lower at this moderate ionic strength than in more dilute buffers, so that the differences in affinity for different oligonucleotides are more apparent. […] The additional affinity of NC for a preferred sequence was shown by this analysis to be largely hydrophobic.

Data set [4] deals with HIV-1 NC protein. The data set can be described thus: Tryptophan fluorescence titration of NC with oligonucleotide, then NaCl dissociation. In kind it is binding. The conditions noted are these: for apparent affinity of NC: fluorescence; for hydrophobic component, apparent affinity constant at 1M NaCl (K°) / K° relative to expected value (weighted average of corresponding homopolymers): 1M NaCl.

Data set [5] deals with 2.2 finger swap mutant protein. Briefly: Fluorescence binding of 2.2 finger swap mutant protein. On the set-up: species or system HIV-1. As to conditions: versus wild-type protein.
Data set [6] deals with "finger swap" mutants of NC (1.1, 2.2, 2.1). The data set can be described thus: SPR binding of "finger swap" mutant NC proteins to the 5' site. On the set-up: species or system HIV-1.
The target of data set [7] is T1, HIV-1 nucleocapsid protein (NC), wild type (Human immunodeficiency virus 1, UniProt P12493 P12493:378-432). The data set can be described thus: SPR; higher level and slower washout than site I DNA.
In data set [8] the target is T1, HIV-1 nucleocapsid protein (NC), wild …. Briefly: SPR; TGTG sufficient for high-affinity binding in A context. The conditions noted are these: label: biotin.
Data set [9] has the same target. Briefly: SPR; two NC per oligo. The conditions noted are these: label: biotin.
The target is the same in data set [10]. The data set can be described thus: SPR; 0.15 M NaCl; most stable of three subsites; relatively high affinity also by fluorescence. The conditions noted are these: label: biotin.
For data set [11] the target is unchanged. The data set can be described thus: SPR; 0.15 M NaCl; tight binding mode (slow washout). The conditions noted are these: label: biotin (SPR).
For data set [12] the target is unchanged. Briefly: SPR; 0.15 M NaCl; second independent mode (fast-released fraction). The conditions noted are these: label: biotin (SPR).
The target is the same in data set [13]. Briefly: SPR; four NC per oligo. As to conditions: label: biotin.
Data set [14] shares this target. Briefly: SPR. As to conditions: label: 3'-biotin.
The target is the same in data set [15]. The data set can be described thus: SPR; negligible binding. As to conditions: label: biotin.
For data set [16] the target is unchanged. Briefly: SPR; TGTG replaced by AAAA; no high-affinity binding. The conditions noted are these: label: biotin.
[17] abbreviates: quantitative analysis of SPR data.

As for `NC(=O)c1cccc(N=O)c1` [NOBA, 3-nitroso benzamide], the “effect on zinc of zinc finger peptide” value in data set [1] was “loss of zinc”. Besides, in [2], the effect on virus result is “viral inactivation”.
As to (TG)5, in data set [3] (SPR), the “number of NC molecules bound per oligonucleotide” value is reported as “two”.
Turning to (TG)10, the “number of NC molecules bound per oligonucleotide” value in [3] (SPR) is “four”.
As for (dT)9, the “hydrophobic component, apparent affinity constant at 1M NaCl (K°)” value in data set [4] is listed as 5×10^1.
For AAAATCTCTA [site II], the “NC binding to oligonucleotide (level and stability during washout)” value (shortened to “NC binding to oligonucleotide”) in [3] (SPR) was “negligible binding”.
For the molecule AAAATGTGAA, in [3] (SPR), the “NC binding to oligonucleotide” value is recorded as “binding”.
With GACTTGTGG [Site I], in data set [3] (SPR), the “dependence of binding on oligonucleotide density” value is “essentially independent”; the “NC binding to oligonucleotide” value is on record as “most stable binding”. Also, in data set [5], the “apparent affinity of 2.2 mutant” value was “lower apparent affinity than that of wild-type protein”. In [4], the “apparent affinity of NC” value was “relatively high affinity”. In data set [6], the “binding of mutant proteins” value was “some binding”. Besides, the “washout of mutant proteins” value in data set [6] (versus wild-type protein) was “washed out considerably faster than the wild-type protein”.
As for GACTTGTGGA, in [3], the “affinity for HIV-1 NC protein” value is given as “nanomolar range”.
For the molecule GACUUGUGG (chemistry not given here), the “NC binding to oligonucleotide” value in data set [3] (SPR) was “at a higher level and washes out more slowly than the binding to the DNA”. Besides, the “affinity for HIV-1 NC protein” value in data set [3] was “nanomolar range”.
For GCAGTGCAT [site III], in data set [3] (SPR), the “NC binding to oligonucleotide” value was “significant binding, but at a lower level and a more rapid loss during the washout than was observed with site I”.
Take GTGTG: in data set [3] (SPR), the “number of NC molecules bound per oligonucleotide” value is “single”; the “NC binding to oligonucleotide” value is on record as “high-affinity binding sites”.
In the case of TGTG (DNA, backbone not given here), in data set [3] (highest oligonucleotide density on chip (FIG. 6D)), the “high-affinity binding of NC” value is “high-affinity binding is achieved”. In data set [3] (oligonucleotide at low density (FIG. 6A)), the “initial binding of NC” value is reported as “substantial degree of initial binding”.
As to TGTGT, in [3] (SPR), the “number of NC molecules bound per oligonucleotide” value was “single”; the “NC binding to oligonucleotide” value was “high-affinity binding sites”.
With TGTGTG, in data set [3], the “affinity for HIV-1 NC protein” value was “nanomolar range”.
On to TGTGTGTG [d(TG)4], for which, in data set [3] (SPR), the “dependence of binding on oligonucleotide density” value is given as “essentially independent” and the “number of NC molecules bound per oligonucleotide” value is on record as “one”. Also, in data set [3] (setting [17]), the “Ka, binding system released more rapidly during washout” value is recorded as 1×10^7 and the “Ka, binding system responsible for slow washout” value was 2e+09 M⁻¹. Also, in data set [4], the “K° relative to expected value (weighted average of corresponding homopolymers)” value (“K° relative to expected value” for short) stood at 145 times; the “hydrophobic component, apparent affinity constant at 1M NaCl (K°)” value is on record as 2.3×10^4; the “apparent affinity of NC” value is recorded as “highest affinity”. Also, the “difference in binding energy” value in data set [4] (d(TG)4 versus d(IT)4, inferred from difference in affinity) is ~ 1 kcal/mole.
Regarding d(G)9, in [3] (SPR), the “extent of binding and retention of NC during washout relative to site 1” value is “far lower than seen with site 1 sequences”; the “NC binding to oligonucleotide” value is given as “clear preference”. Moreover, in data set [4], the “apparent affinity of NC” value is “higher than that for the other hompolymeric oligodeoxynucleotides”.
On to d(GA)4, for which, in [4], the “K° relative to expected value” value is “coincided with the value that would be predicted”.
d(IT)4: the “K° relative to expected value” value in [4] was determined as 10 times.
Take d(T)10: the “NC binding to oligonucleotide” value in data set [3] (SPR) was “detectable binding”.
Turning to GACUUGUGG (ssRNA) [site I RNA], the binding result in data set [7] was “binds”.
Regarding AAAATGTGAA (ssDNA), in [8], the binding result was “binds”.
With TGTGTGTGTG (ssDNA) [(TG)5], the binding result in [9] is given as “binds”.
In the case of GACTTGTGG (ssDNA) [site I], in data set [10], the binding result is “binds”.
As to TGTGTGTG (ssDNA) [d(TG)4], the Ka in [11] was 2e+09 M⁻¹; in [12], 1e+07 M⁻¹.
As for TGTGTGTGTGTGTGTGTGTG (ssDNA) [(TG)10], the binding result in data set [13] is reported as “binds”.
Regarding GACTTGTGGAAAATCTCTAGCAGTGCAT (ssDNA) [28-mer ss oligodeoxynucleotide (HIV-1 U5 3' end)], the binding result in data set [14] is on record as “binds”.
For the molecule AAAATCTCTA (ssDNA) [site II], in [15], the binding result was “no binding”.
For GACTAAAAGA (ssDNA), the binding result in data set [16] was “no binding”.
